# Source: PMC4838876, “Multivalent display of minimal Clostridium difficile glycan epitopes mimics antigenic properties of larger glycans” (Nature Communications, 2016)
# pKd: −log10 of the molar value.
# Key:
# mAbs 2C5, 10A1 and 10D6 = assay: Glycan microarray binding of purified mAbs; set-up: species or system mouse; settings: purified mAbs on microarray, 10 μg ml^−1
# From the text: Three hybridoma clones termed 2C5, 10A1 and 10D6 produced IgG exclusively binding to 1. […] The three mAbs were of the IgG1 subtype (Fig. 4b). Microarrays with PS-I oligosaccharide substructures were used to determine their binding specificities (Fig. 4c). […] No binding to oligoglucoses 5 and 6, or unrelated glycans 7 or 8 was seen (Fig. 4c,d). Based on these findings, we concluded that the requirements for anti-PS-I antibody binding were a terminal rhamnose that is 1→3 linked to a glucose, as present in glycans 1–3.
# Figure 4 Characterization and epitope recognition patterns of anti-PS-I mAbs. (a) SDS–PAGE analysis of the purified mAbs showing bands corresponding to heavy and light IgG chains. (b) Isotyping analysis of the three mAbs. […] (d) Glycan microarray-inferred binding signals to selected PS-I antigens (1–4) expressed as background-subtracted mean fluorescence intensities (MFIs) are shown. […]
# Microarray slides were blocked with 1% BSA in PBS (w/v) for 1 h at RT, washed three times with PBS and dried by centrifugation (300 g, 5 min). […] Slides were incubated with fluorescence-labelled secondary antibodies diluted 1:400 in 1% BSA in PBS (w/v) in a humid chamber for 1 h at RT, washed three times with 0.1% Tween-20 in PBS (v/v), rinsed once with deionized water and dried by centrifugation (300 g, 5 min) before scanning with a GenePix 4300A microarray scanner (Molecular Devices). […]
# [1] = system: anti-PS-I mAbs 2C5, 10A1 and 10D6; assay: Kinetic SPR, summary over the three anti-PS-I mAbs; assay type: binding, mouse; settings: for pKd: SPR, range over mAbs 2C5, 10A1, 10D6
# Method: Kinetic SPR experiments were performed to determine the binding strengths of the mAbs to PS-I glycans expressed as dissociation constants (KD)[8] (Fig. 5a). […] Overall, the SPR measurements (summarized in Table 1) confirmed results obtained by glycan microarray presented above.
# Binding analyses were carried out on a Biacore T100 instrument (GE Healthcare). CM5 sensor chips were functionalized with about 10,000 RUs of α-mouse IgG capture antibody, using the Mouse Antibody Capture Kit and the Amine Coupling Kit (GE Healthcare) according to the manufacturer's recommendations. A blank-immobilized flow cell was used as reference, to compensate for nonspecific binding of antibodies or oligosaccharides to the sensor chip surface. Kinetic measurements were performed with the Biacore T100 Control software using the ‘Kinetics' function. PBS was used as running buffer and all measurements were performed at 25 °C and a flow rate of 30 μl min^−1. About 500 RUs of mAbs were captured at a concentration of 50 μg ml^−1 diluted in PBS and oligosaccharides or OAAs (in PBS) at the indicated concentrations were passed through, using the standard parameters for association and dissociation times unless mentioned otherwise. Flow cells were regenerated with 10 mM glycine-HCl pH 1.7 for 30 s. Kinetic evaluation of binding responses was performed with the Biacore T100 Evaluation software, using reference-subtracted sensorgrams. Two different kinetic models, a 1:1 binding Langmuir model and a two-state reaction model, which assumes a conformational change in the antibody–analyte complex, were used to fit the data. The fitting quality was evaluated by investigating respective residual plots, χ^2 and s.e. values for on- and off-rates. Both models yielded similar good fittings. We chose the 1:1 binding model over the two-state reaction model to calculate on- and off-rates, as well as KD values, as this model makes fewer assumptions. When on-rates and/or off-rates were outside of the measurable ranges of the instrument, the steady-state affinity model was used instead to determine KD values. […]
SMILES,"Glycan microarray binding signal (in words) (mAbs 2C5, 10A1 and 10D6)",fold lower KD values than minimal glycan epitope 3 ([1]; KD of 1 compared with 3),pKd [1]
C[C@@H]1O[C@@H](O[C@@H]2[C@@H](O)[C@H](O[C@H]3[C@H](O[C@@H]4O[C@@H](C)[C@H](O)[C@@H](O)[C@H]4O)[C@@H](O)[C@@H](O[C@H]4[C@@H](OCCCCCN)O[C@H](CO)[C@@H](O)[C@@H]4O)O[C@@H]3CO)O[C@H](CO)[C@H]2O)[C@H](O)[C@H](O)[C@H]1O [Compound 1],Highest binding signals,about 100 fold,6.61 to 6.79
"C[C@@H]1O[C@@H](O[C@@H]2[C@@H](O)[C@H](OCCCCCN)O[C@H](CO)[C@H]2O)[C@H](O)[C@H](O)[C@H]1O [Compound 3, Rha-(1→3)-Glc]",weaker signals,–,4.43 to 5.23
